Measured values taken from ChEMBL document CHEMBL1128925, “Novel inhibitors of cell adhesion molecule expression” (Bioorg Med Chem Lett, 1996).

Legend:
HUVEC [1] = assay: Compound was evaluated for inhibition of expression of ELAM-1 in IL-1 beta activated human umbilical vein endothelial cells(HUVECs) by using ELISA at 30 uM; assay type: functional
HUVEC [2] = assay: Compound was evaluated for inhibition of expression of VCAM-1 in IL-1 beta activated human umbilical vein endothelial cells(HUVECs) by using ELISA at 30 uM; assay type: functional
Mus musculus = species on record: Mus musculus; assay: Compound was evaluated for inhibition of neutrophil recruitment in a mouse skin immune complex model.; assay type: functional; parameters: concentration or dose not given beside the values
HUVEC [3] = assay: Compound was evaluated for inhibition of expression of ELAM-1 in IL-1 beta activated human umbilical vein endothelial cells(HUVECs) by using ELISA; assay type: functional, cell-based
HUVEC [4] = assay: Compound was evaluated for inhibition of expression of VCAM-1 in IL-1 beta activated human umbilical vein endothelial cells(HUVECs) by using ELISA; assay type: functional, cell-based

SMILES | inhibition at 30 µM (HUVEC [1]) [%] | inhibition at 30 µM (HUVEC [2]) [%] | Inhibition (Mus musculus) [%] | IC50 (HUVEC [3]) [µM] | IC50 (HUVEC [4]) [µM]
Cc1nnc([S+]([O-])Cc2ccccn2)o1 (configuration not stated) | 60 | 80 | 40 | – | –
COc1c(C)cnc(C[S+]([O-])c2nnc(-c3cccn3C)o2)c1C (configuration not stated) | – | – | – | 6 | 4
COc1c(C)cnc(C[S+]([O-])c2nnc(-c3ccc(C(F)(F)F)cc3)o2)c1C (configuration not stated) | 50 | 70 | – | – | –
CCCc1nnc([S+]([O-])Cc2ncc(C)c(OC)c2C)o1 (configuration not stated) | – | – | – | 10 | 8
COc1ccnc2c1CCCCC2[S+]([O-])c1nnc(C)o1 (configuration not stated) | 0 | 0 | – | – | –
COc1c(C)cnc(C[S+]([O-])c2nnc(-c3ccc(F)cc3)o2)c1C (configuration not stated) | – | – | – | 14 | 11
COc1c(C)cnc(C[S+]([O-])c2nnc(-c3cccs3)o2)c1C (configuration not stated) | – | – | – | 5 | 3
CCCCc1nnc([S+]([O-])Cc2ncc(C)c(OC)c2C)o1 (configuration not stated) | 60 | 85 | – | – | –
CCCCCc1nnc([S+]([O-])Cc2ncc(C)c(OC)c2C)o1 (configuration not stated) | 45 | 70 | – | – | –
Cc1nnc([S+]([O-])Cc2ccccc2)o1 (configuration not stated) | 20 | 35 | – | – | –
[O-][S+](Cc1ccccc1)c1nnc(-c2cccnc2)o1 (configuration not stated) | – | – | 50 | 8 | 6
CCc1nnc([S+]([O-])Cc2ncc(C)c(OC)c2C)o1 (configuration not stated) | – | – | – | 12 | 10
COc1c(C)cnc(C[S+]([O-])c2nnc(-c3ccccc3O)o2)c1C (configuration not stated) | – | – | 20 | 10 | 8
COc1c(C)cnc(C[S+]([O-])c2nnc(-c3cccc(F)c3)o2)c1C (configuration not stated) | – | – | – | 15 | 12
COc1c(C)cnc(C[S+]([O-])c2nnc(C)o2)c1C (configuration not stated) | – | – | 55 | 10 | 8
[O-][S+](Cc1ccccc1)c1nnc(-c2cccs2)o1 (configuration not stated) | – | – | 40 | 7 | 6
[O-][S+](Cc1ccccc1)c1nnc(-c2ccccc2O)o1 (configuration not stated) | – | – | – | 8 | 6
[O-][S+](Cc1ccccc1)c1nnc(-c2ccccn2)o1 (configuration not stated) | – | – | 80 | 5 | 4
[O-][S+](Cc1ccccc1)c1nnc(-c2ccncc2)o1 (configuration not stated) | – | – | 55 | 4 | 3
Cc1nnc([S+]([O-])c2c(C)cccc2C)o1 (configuration not stated) | 0 | 0 | – | – | –
COc1c(C)cnc(C[S+]([O-])c2nnc(-c3ccccc3)o2)c1C (configuration not stated) | – | – | 25 | 7 | 6
COc1c(C)cnc(C[S+]([O-])c2nnc(-c3cccc(C(F)(F)F)c3)o2)c1C (configuration not stated) | 70 | 85 | – | – | –
